Peptide text beside a SMILES is read from it.

Data set [1] is described as follows: Peptide stability in solution at pH 7.4 (HPLC peak area vs reference). It counts as physicochemical. As to conditions: for Stability of peptides (ratio of the pick area on the indicated day/ pic area of a fresh solution of the same peptide): 7-day incubation in solution at pH7.4, - 20°C; for stability in solution (in words): in solution at physiological pH (pH 7.4). The protocol: To develop a relevant vaccine, it is necessary to have a proper drug substance stability. To assess stability, the peptides were diluted at à 0,5 mg/mL in water, adjusted at pH 7.4, frozen at -20° C, and analyzed by HPLC (Hypersil GOLD C8 15cm x 4.6mm x 5µm (ThermoFisher) on the indicated day, using an elution buffer CH3CN 15%, TFA 0,1%. The pic area was compared to a reference standard.
Indeed, after 7 days at -20°C, the pic of SEQ ID NO: 4 was reduced by 53%, while SEQ ID NO: 7 was stable (> 95%) for at least 3 months at pH7.4 at -20°C, and at least 7 days at room temperature. Table 4: Stability of peptides after a 7-day incubation period in solution at pH7.4 at different temperature (ratio of the pick area on the indicated day/ pic area of a fresh solution of the same peptide)

Experiment in data set [2]: as above
It counts as physicochemical.

The format of data set [3] is binding. To be noted: pH 7.5. On the procedure: L-Dopa alone (0.8mg/ml) was polymerized into melanin for 2h at pH 8.5 and 60°C under agitation. The reaction mixture was then filtered on a 10kDa filter, and the retentate containing the synthetic melanin was resuspended at pH 7.5 in phosphate buffer. Peptides were then added (at the weight ratio melanin/peptide of 2) and the mixtures were incubated for 18 hours at room temperature. Tricine-SDS-PAGE analysis was performed as described in Carpentier; 2017 (op. cit.). Briefly, samples (peptide-Mel or peptide alone) were loaded on acrylamide gels. Following electrophoresis, the gels were stained with Coomassie Brilliant Blue R-250 and imaged with the ChemiDoc XRS+ system (Bio-Rad Laboratory), allowing the quantification of the free peptide in the gel. The binding of peptides to melanin was expressed as the ratio: [amount of unbound peptide in samples Peptide-Mel / amount of peptides in control samples containing peptides alone]. […] Table 3: Binding of peptides on synthetic melanin. L-Dopa (0.8mg/ml) underwent an oxidative polymerization at pH 8.5 in aerobic conditions for 2 hours at 60°C. The reaction mixture was then filtered on a 10kDa filter, and the retentate containing the synthetic melanin was resuspended at pH 7.5. […] The percentage of peptides that bound to melanin was then quantified with SPS-page analysis

A short description of data set [4]: Filterability and precipitation of the mixture peptide + melanin. To be noted: mixture peptide + melanine in isotonic saline. It counts as physicochemical. An excerpt:
Filterability of a medical formulation on a 0.2µ filter is important to achieve a sterile solution.

The mark [5] stands for this setting: 7-day incubation in solution at pH7.4, 4°C.
Where [6] appears, read: 7-day incubation in solution at pH7.4, Room temperature.

As to `CC[C@H](C)[C@H](NC(=O)CNC(=O)[C@@H](NC(=O)[C@H](CO)NC(=O)[C@H](CCC(N)=O)NC(=O)[C@H](CC(C)C)NC(=O)[C@H](CCCCN)NC(=O)[C@H](CO)NC(=O)[C@H](Cc1c[nH]c2ccccc12)NC(=O)[C@@H](NC(=O)[C@H](CO)NC(=O)[C@@H](N)CCCCN)C(C)C)[C@@H](C)CC)C(=O)N[C@@H](CCCNC(=N)N)C(=O)N[C@@H](CCC(N)=O)C(=O)N[C@@H](Cc1c[nH]cn1)C(=O)O` [SEQ ID NO: 1, KSVWSKLQSIGIRQH, reference compound], the “Stability of peptides (ratio of the pick area on the indicated day/ pic area of a fresh solution of the same peptide)” value is listed as 100% in data set [1], 98% in data set [2] (setting [5]) and 92% in data set [2] (setting [6]).
`CC[C@H](C)[C@H](NC(=O)CNC(=O)[C@@H](NC(=O)[C@H](CO)NC(=O)[C@H](CCC(N)=O)NC(=O)[C@H](CC(C)C)NC(=O)[C@H](CCCCN)NC(=O)[C@H](CO)NC(=O)[C@H](Cc1c[nH]c2ccccc12)NC(=O)[C@@H](NC(=O)[C@H](CO)NC(=O)[C@H](CCCCN)NC(=O)[C@@H](N)CS)C(C)C)[C@@H](C)CC)C(=O)N[C@@H](CCCNC(=N)N)C(=O)N[C@@H](CCC(N)=O)C(=O)N[C@@H](Cc1c[nH]cn1)C(=O)O` [SEQ ID NO: 4, CKSVWSKLQSIGIRQH] (H-CKSVWSKLQSIGIRQH-OH): the “percentage of peptides that bound to melanin” value in data set [3] is on record as 59%. Further, in data set [1], the “Stability of peptides (ratio of the pick area on the indicated day/ pic area of a fresh solution of the same peptide)” value is 47% and the “stability in solution (in words)” value is on record as “highly unstable”.
For the compound `CC[C@H](C)[C@H](NC(=O)CNC(=O)[C@@H](NC(=O)[C@H](CO)NC(=O)[C@H](CCC(N)=O)NC(=O)[C@H](CC(C)C)NC(=O)[C@H](CCCCN)NC(=O)[C@H](CO)NC(=O)[C@H](Cc1c[nH]c2ccccc12)NC(=O)[C@@H](NC(=O)[C@H](CO)NC(=O)[C@H](CCCCN)NC(=O)[C@@H](N)CCSC)C(C)C)[C@@H](C)CC)C(=O)N[C@@H](CCCNC(=N)N)C(=O)N[C@@H](CCC(N)=O)C(=O)N[C@@H](Cc1c[nH]cn1)C(=O)O` [SEQ ID NO: 5, MKSVWSKLQSIGIRQH] (H-MKSVWSKLQSIGIRQH-OH), the “Stability of peptides (ratio of the pick area on the indicated day/ pic area of a fresh solution of the same peptide)” value is recorded as 23% in data set [1], 25% in data set [2] (setting [5]) and 3% in data set [2] (setting [6]). For the same compound, the “stability in solution (in words)” value in data set [1] is “highly unstable”.
Consider `CC[C@H](C)[C@H](NC(=O)CNC(=O)[C@@H](NC(=O)[C@H](CO)NC(=O)[C@H](CCC(N)=O)NC(=O)[C@H](CC(C)C)NC(=O)[C@H](CCCCN)NC(=O)[C@H](CO)NC(=O)[C@H](Cc1c[nH]c2ccccc12)NC(=O)[C@@H](NC(=O)[C@H](CO)NC(=O)[C@H](CCCCN)NC(=O)[C@@H](N)CO)C(C)C)[C@@H](C)CC)C(=O)N[C@@H](CCCNC(=N)N)C(=O)N[C@@H](CCC(N)=O)C(=O)N[C@@H](Cc1c[nH]cn1)C(=O)O` [SEQ ID NO: 7, SKSVWSKLQSIGIRQH] (H-SKSVWSKLQSIGIRQH-OH), for which the “Stability of peptides (ratio of the pick area on the indicated day/ pic area of a fresh solution of the same peptide)” value in data set [1], in data set [2] (setting [5]) and in data set [2] (setting [6]) was 100% each time. For the same compound, the “stable (remaining peptide)” value in data set [1] (at least 3 months at pH7.4 at -20°C) is given as over 95%; in data set [1] (at least 7 days at room temperature, pH7.4), over 95%. In data set [1], the “stability in solution (in words)” value is “very stable”. Moreover, the “time remaining in suspension” value in data set [4] was “more than 18 hours”.

Values taken from patent EP4420677A1, “VACCINES AGAINST TERT-POSITIVE TUMORS” (Altevax, priority 2023, dated 2024).
